Assays:
[1] = biological target: T1, endothelin converting enzyme (Bos taurus, UniProt P42891); test: Zones of enzyme inhibition in Sephacryl gel with fluorogenic FRET substrate, fluorescence imaging; assay type: biochemical; conditions: beads impregnated with 10mM solution in DMSO; gel left at ambient temperature overnight; FRET substrate 4micromolar
T1 construct: Samples of endothelin converting enzyme (ECE) were obtained essentially according to the method of Okada et al; endogenous in cells; By own knowledge of Okada et al. 1990: membrane fraction of cultured bovine endothelial cells
T1 sequence (P42891 1-754): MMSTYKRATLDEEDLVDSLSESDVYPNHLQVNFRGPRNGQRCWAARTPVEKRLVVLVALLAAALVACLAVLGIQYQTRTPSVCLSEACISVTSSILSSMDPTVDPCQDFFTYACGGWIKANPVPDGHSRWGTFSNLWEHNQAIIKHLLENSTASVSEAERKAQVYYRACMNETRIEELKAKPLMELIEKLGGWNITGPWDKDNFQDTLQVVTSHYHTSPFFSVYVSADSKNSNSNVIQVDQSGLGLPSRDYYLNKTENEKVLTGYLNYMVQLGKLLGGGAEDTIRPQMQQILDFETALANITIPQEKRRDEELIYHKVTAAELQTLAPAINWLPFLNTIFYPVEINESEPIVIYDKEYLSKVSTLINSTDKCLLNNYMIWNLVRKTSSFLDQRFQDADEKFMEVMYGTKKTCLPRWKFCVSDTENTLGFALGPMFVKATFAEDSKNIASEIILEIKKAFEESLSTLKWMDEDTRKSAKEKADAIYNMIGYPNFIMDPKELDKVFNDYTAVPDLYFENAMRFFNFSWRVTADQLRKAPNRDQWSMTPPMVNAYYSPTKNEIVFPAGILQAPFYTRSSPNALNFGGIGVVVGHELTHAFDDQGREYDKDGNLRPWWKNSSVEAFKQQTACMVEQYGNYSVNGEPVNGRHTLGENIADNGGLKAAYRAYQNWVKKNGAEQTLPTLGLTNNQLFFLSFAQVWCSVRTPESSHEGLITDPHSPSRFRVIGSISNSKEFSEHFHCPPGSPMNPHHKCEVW
Protocol: In this example, polystyrene beads are impregnated with a compound (phosphoramidon) to simulate the situation that would arise when a compound is made on a bead and then released prior to contacting the assay medium. The assay medium comprises a Sephacryl™ gel containing an enzyme, endothelin converting enzyme, and a fluorogenic FRET substrate, following by fluorescence imaging of the gel.
Ca 300 beads as used in Example 1 were suspended in a solution of phosphoramidon (10mM) in DMSO, allowed to swell and washed briefly in DMSO.
The FRET substrate, was derived from that of human big endothelin-1, 16-37, with Glu-26 changed to Cys: [formula] Fluorescein had been attached to Cys-26 and tetramethylrhodamine attached to the N-terminus, such that cleavage of the substrate removes the quenching effect of the tetramethylrhodamine resulting in an increase of fluorescein fluorescence.
The assay phase was assembled as follows. Sephacryl™ S-500 gel was suspended in 0.2M Tris/HCl pH 7.2 containing 0.5% BSA and then washed with buffer alone. To this gel suspension (24.5ml) was added the FRET substrate (3ml, 4micromolar final) and ECE (2.6 microlitres). After gentle mixing, the gel was poured into the polystyrene lid of a microtitre plate, allowed to settle and excess liquid gently removed with a tissue. […] The gel was then imaged on a fluorescence imager (FluorImager, Molecular Dynamics).

endothelin receptor = test: IC-50 determination by conventional filtration techniques (Holland et al.); assay type: binding
[2] = test system: porcine endothelin receptor; test: Zone screening scintillation proximity assay in agarose gel, [125-I]Endothelin binding to receptor-coated SPA microspheres; conditions: one bead per well
Protocol: Agarose (Sigma) was suspended in distilled water and heated to boiling point in a microwave to melt, then cooled to 50 deg. C. Microspheres coated with the porcine endothelin receptor (1 vial, SPA, Amersham) were re-constituted in assay buffer (50 mM Tris.HCl, 1 mM EDTA, 0.1% BSA, 10 mM MgC12, pH 6.4 (25 ml). This suspension (10 ml) was then added to the cooled (50 deg. C) agarose (10 ml), vortexed mixed and 0.1 ml portions immediately added to wells of a white microtitre plate (Picoplate-96, Packard).
Test compounds were prepared as follows. Polystyrene beads (as used in example 1) were suspended in DMSO solutions of endothelin-1 (Cambridge Research Biochemicals) or various test compounds (T1 - T4) at various concentrations (see Table 1) for about 2 hours. After a spin (1 min.) on a micro-fuge, the beads were washed briefly in ethanol. Single beads were then transfered with forceps into the centre of the wells containing the SPA/agarose mix, one bead per well.
[125-I]Endothelin (Amersham) was diluted into the assay buffer to give a 180 pM solution. 6 ml of this was added to 6 ml of 1% agarose (at 50 deg. C) and vortexed mixed. 0.05 ml aliquots were then immediately added to each well. The plate was then sealed (Topseal-S, Packard) and counted at intervals (Top Count, Packard) for 2 minutes per well. By reference to a total control (no compound present) and non-specific binding control (40 micromolar endothelin-1, measured after 8 hours incubation), the per cent inhibition caused by each compound as it diffused away from the bead was calculated.
This inhibition is related to the potency of the compound. […]

zones of enzyme inhibition in gel (fluorescence image) [1]	IC50 (endothelin receptor) [nM]	inhibition (%) ([2]; readings at 2 hours, bead soaked in 1.25 micromolar DMSO solution)	inhibition (%) ([2]; readings at 2 hours, bead soaked in 2.5 micromolar DMSO solution)	inhibition (%) ([2]; readings at 2 hours, bead soaked in 5 micromolar DMSO solution)	inhibition (%) ([2]; readings at 2 hours, bead soaked in 10 micromolar DMSO solution)	inhibition (%) ([2]; readings at 2 hours, bead soaked in 20 micromolar DMSO solution)	inhibition (%) ([2]; readings at 2 hours, bead soaked in 40 micromolar DMSO solution)	inhibition (%) ([2]; readings at 8 hours, bead soaked in 1.25 micromolar DMSO solution)	inhibition (%) ([2]; readings at 8 hours, bead soaked in 2.5 micromolar DMSO solution)	inhibition (%) ([2]; readings at 8 hours, bead soaked in 5 micromolar DMSO solution)	inhibition (%) ([2]; readings at 8 hours, bead soaked in 10 micromolar DMSO solution)	inhibition (%) ([2]; readings at 8 hours, bead soaked in 20 micromolar DMSO solution)	inhibition (%) ([2]; readings at 8 hours, bead soaked in 40 micromolar DMSO solution)	Compound
zones of reduced fluorescence														CC(C)C[C@H](NP(=O)(O)O[C@@H]1O[C@@H](C)[C@H](O)[C@@H](O)[C@H]1O)C(=O)N[C@@H](Cc1c[nH]c2ccccc12)C(=O)O [phosphoramidon]
	0.18	-0.6	12.3	19.5	36.3	85.2	(100) %	6.5	14.0	18.2	40.0	47.5	(100) %	endothelin-1

— patent EP0774116B1, “METHOD FOR SCREENING COMPOUND LIBRARIES” (ZENECA LIMITED, priority 1994, dated 1996)
